# Reference: paper PMC11672750, “PfGSTF2 endows resistance to quizalofop‐p‐ethyl in Polypogon fugax by GSH conjugation” (Plant Biotechnology Journal, 2024)
# Tested on: PfGSTF58
# Assay: absorbance at […] nm, Michaelis-Menten fit
# Type: biochemical, Polypogon fugax
# Conditions: GSH co-substrate; 30 °C
structure (smiles),measurement,value
"O=[N+]([O-])c1ccc(Cl)c([N+](=O)[O-])c1 [1-chloro-2,4-dinitrobenzene]",Km,450 ± 90 µM
